Columns and labels:
MBT-2 bladder cancer = test: Subcutaneous MBT-2 mouse bladder cancer syngeneic model; format: in vivo; conditions: anti-PD-L1 5 mg/kg i.p. bi-weekly; Debio 1143 100 mg/kg p.o. QD1-5; alone or combined, 3 weeks
Description: FIG. 3: Anti-tumor activity of Debio 1143, anti-PD-L1 antibody, and their combination in the subcutaneous MBT-2 mouse bladder cancer syngeneic model.
The anti-tumor activity of an anti-PD-L1 antibody (5 mg/kg BIW i.p.; clone 10F.9G2, BioXcell) was tested either alone or in combination with Debio 1143 (100 mg/kg QD1-5 p.o.) in MBT-2 immunocompetent syngeneic mouse model of bladder cancer in C3H/HeNCrl mice over 3 weeks (see, for example, Shimazui et al., 2013. Int J Oncol. 42(2):543-8). Each mouse was inoculated subcutaneously at the right flank region with MBT-2 tumor cells (2×10^5) in 0.1 ml of PBS for tumor development. The treatments were started when the mean tumor size reached 101 mm^3 (n=8/group).

human T cells (PBMCs) = test: Ex vivo T-cell activation in human PBMCs upon CD3/CD28 stimulation; format: cell-based; conditions: 10 μM Debio 1143 added to anti-CD3/CD28 stimulation, 24 hours, cytometric analysis
Description: FIG. 1: Ex vivo T-cell activation in human peripheral blood mononuclear cells (PBMCs) upon CD3/CD28 stimulation and Debio 1143 treatment. N=1 healthy donor; values represent means of triplicates±SD. To test the effect of Debio 1143 on activation of human T cells, PBMCs freshly isolated from healthy human donors were stimulated ex vivo with anti-CD3/CD28 antibodies for 24 in the presence of 10 μM Debio 1143, or control treatments without stimulation and Debio 1143 incubation.

CN[C@@H](C)C(=O)N[C@H]1CN(C(=O)CC(C)C)CC[C@H]2CC[C@@H](C(=O)NC(c3ccccc3)c3ccccc3)N2C1=O [Debio 1143, (5S,8S,10aR)-N-benzhydryl-5-((S)-2-(methylamino)propanamido)-3-(3-methylbutanoyl)-6-oxodecahydropyrrolo[1,2-a][1,5]diazocine-8-carboxamide]
anti-tumor activity (MBT-2 bladder cancer): weak anti-tumor activity
T cell activation (percentage of IFNγ+ CD4+ and IFNγ+ CD8+ T-cells) (human T cells (PBMCs)): significant increase in T cell activation

Source: patent US20210198365A1, “COMBINATION PRODUCT FOR THE TREATMENT OF CANCER” (Debiopharm International S.A., priority 2017, published 2021)
